According to US20080299188A1, “CONTROLLED RELEASE DOSAGE FORMS COMBINING IMMEDIATE RELEASE AND SUSTAINTED RELEASE OF LOW-SOLUBILITY DRUG” (Pfizer Inc., priority 2007, published 2008):
Where a name gives a salt, the structure may show the parent alone.

Legend:
Assay type in all cases: physicochemical
[1] = solubility in phosphate buffered saline (pH 6.5); details: expressed as the free base
Description: An example of a drug having a crystalline highly soluble salt form is ziprasidone. Ziprasidone hydrochloride monohydrate has a solubility of about 10 μgA/mL (expressed as the free base) in phosphate buffered saline (pH 6.5), whereas the free base form has a solubility of less than about 0.2 μgA/mL under the same conditions. Thus, crystalline ziprasidone hydrochloride is a solubility-improved form relative to the crystalline free base form of drug.

[2] = microcentrifuge dissolution test in MFD solution; details: during the initial ninety minutes
Method: Microcentrifuge dissolution tests were performed to evaluate the hydrochloride crystalline salt form of ziprasidone to verify that it was a solubility-improved form of ziprasidone. For this test, a sufficient amount of ziprasidone hydrochloride monohydrate was added to a microcentrifuge test tube so that the concentration of ziprasidone would have been 200 μgA/mL, if all of the ziprasidone had dissolved. The tests were run in duplicate. The tubes were placed in a 37° C. temperature-controlled chamber, and 1.8 mL MFD solution at pH 6.5 and 290 mOsm/kg was added to each respective tube. The samples were quickly mixed using a vortex mixer for about 60 seconds. The samples were centrifuged at 13,000 G at 37° C. for 1 minute prior to collecting a sample. The resulting supernatant solution was then sampled and diluted 1:5 (by volume) with methanol. Samples were analyzed by high-performance liquid chromatography (HPLC) at a UV absorbance of 315 nm using a Zorbax RxC8 Reliance column and a mobile phase consisting of 55% (50 mM potassium dihydrogen phosphate, pH 6.5)/45% acetonitrile. Drug concentration was calculated by comparing UV absorbance of samples to the absorbance of drug standards. The contents of each tube were mixed on the vortex mixer and allowed to stand undisturbed at 37° C. until the next sample was taken. Samples were collected at 4, 10, 20, 40, 90, and 1200 minutes following administration to the MFD solution.
A similar test was performed with the crystalline ziprasidone free base as a control, and a sufficient amount of material was added so that the concentration of compound would have been 200 μgA/mL, if all of the ziprasidone had dissolved.
The concentrations of ziprasidone obtained in these tests were used to determine the maximum dissolved concentration of ziprasidone (“MDC90”) and the area under the concentration-versus-time curve (“AUC90”) during the initial ninety minutes.

[3] = in vitro membrane permeation test
Method: The ziprasidone coated crystals were evaluated in vitro using a membrane permeation test. An Accurel® PP 1E microporous polypropylene membrane was obtained from Membrana GmbH (Wuppertal, Germany). The membrane was washed in isopropyl alcohol and rinsed in methanol in a sonicating bath for 1 minute at ambient temperature, and then allowed to air dry at ambient temperature. The feed side of the membrane was then plasma-treated to render it hydrophilic by placing a sample of the membrane in a plasma chamber. The atmosphere of the plasma chamber was saturated with water vapor at a pressure of 550 mtorr. A plasma was then generated using radio frequency (RF) power inductively coupled into the chamber via annular electrodes at a power setting of 50 watts for 45 seconds. The contact angle of a drop of water placed on the surface of the plasma-treated membrane was about 40°. […]
To form the feed solution, a 1.39 mg sample of the coated crystals was weighed into the feed reservoir. […] Samples were then diluted in […] IPA and analyzed using HPLC. […]
The maximum flux of drug across the membrane (in units of mgA/cm^2-min) was determined by performing a least-squares fit to the data in Table 3 from 0 to 60 minutes to obtain the slope, multiplying the slope by the permeate volume (5 ml), and dividing by the membrane area (4.9 cm^2).

| solubility ([1]; hydrochloride monohydrate) | AUC90 (area under the concentration-versus-time curve) ([2]; hydrochloride monohydrate) | MDC90 (maximum dissolved concentration of ziprasidone) ([2]; hydrochloride monohydrate) | Concentration (permeate solution) ([3]; feed MFD solution 100 μgA/ml if all dissolved, permeate 60 wt % decanol in decane, 37° C., time 0 min) | Initial Flux of Ziprasidone ([3]; least-squares fit of Table 3 data from 0 to 60 minutes, permeate volume 5 ml, membrane area 4.9 cm^2) | solubility ([1]; listed as free base form) | AUC90 (area under the concentration-versus-time curve) [2] | MDC90 (maximum dissolved concentration of ziprasidone) [2] | SMILES |
| --- | --- | --- | --- | --- | --- | --- | --- | --- |
| about 10 μgA/mL | 1700 min·µgA/mL | 22 µgA/mL | 0.5 μgA/ml | 0.16 µgA/cm²·min |  |  |  | O=C1Cc2cc(CCN3CCN(c4nsc5ccccc45)CC3)c(Cl)cc2N1 [Ziprasidone hydrochloride monohydrate, ziprasidone hydrochloride monohydrate] |
|  |  |  |  |  | less than 0.2 μgA/mL | 120 min·µgA/mL | 2 µgA/mL | O=C1Cc2cc(CCN3CCN(c4nsc5ccccc45)CC3)c(Cl)cc2N1 [Ziprasidone Free Base, ziprasidone] |
